Test results published in ChEMBL document CHEMBL1156261, “Evaluation of substituted N,N'-diarylsulfonamides as activators of the tumor cell specific M2 isoform of pyruvate kinase” (J Med Chem, 2010).
Calls of active or inactive are those of the source. How the calls were made is not given here.

biological target: Pyruvate kinase (Leishmania mexicana) (UniProt Q27686); assay: Activation of Leishmania mexicana pyruvate kinase by quantitative high throughput screening assay

SMILES | Activity
O=S(=O)(c1cccc(C(F)(F)F)c1)N1CCN(S(=O)(=O)c2ccc3c(c2)OCCO3)CC1 | inactive
O=S(=O)(c1ccc(Cl)cc1)N1CCN(S(=O)(=O)c2ccc3c(c2)OCCO3)CC1 | inactive
Cn1ccc2cc(S(=O)(=O)N3CCN(S(=O)(=O)c4c(F)cccc4F)CC3)ccc21 | inactive
O=S(=O)(N[C@H]1CC[C@H](NS(=O)(=O)c2c(F)cccc2F)CC1)c1ccc2c(c1)OCCO2 | inactive
C[C@H]1CN(S(=O)(=O)c2c(F)cccc2F)CCN1S(=O)(=O)c1ccc2c(c1)OCCO2 | inactive
O=C1CN(S(=O)(=O)c2c(F)cccc2F)CCN1S(=O)(=O)c1ccc2c(c1)OCCO2 | inactive
O=S(=O)(NC1CCN(S(=O)(=O)c2ccc3c(c2)OCCO3)CC1)c1c(F)cccc1F | inactive
O=C(c1ccc2c(c1)OCCO2)N1CCN(S(=O)(=O)c2c(F)cccc2F)CC1 | inactive
O=S(=O)(c1ccc2c(c1)OCCO2)N1CCN(S(=O)(=O)c2ccccn2)CC1 | inactive
O=S(=O)(c1ccc2c(c1)OCCO2)N1CCN(S(=O)(=O)c2ccc3c(c2)OCCO3)CC1 | inactive
O=S(=O)(c1c(F)cccc1F)N1CCN(S(=O)(=O)c2c(F)cccc2F)CC1 | inactive
O=S(=O)(c1ccc2c(c1)OCCO2)N1CCN(S(=O)(=O)c2c(F)ccc(O)c2F)CC1 | inactive
COc1ccc(S(=O)(=O)N2CCN(S(=O)(=O)c3ccc(OC)cc3)CC2)cc1 | inactive
O=S(=O)(NCCCNS(=O)(=O)c1c(F)cccc1F)c1ccc2c(c1)OCCO2 | inactive
O=S(=O)(c1ccccc1)N1CCN(S(=O)(=O)c2ccc3c(c2)OCCO3)CC1 | inactive
O=S(=O)(c1ccc2c(c1)OCCO2)N1CCN(S(=O)(=O)c2cccc[n+]2[O-])CC1 | inactive
O=S(=O)(NCC1CN(S(=O)(=O)c2ccc3c(c2)OCCO3)C1)c1c(F)cccc1F | inactive
O=S(=O)(c1ccc2c(c1)OCO2)N1CCN(S(=O)(=O)c2c(F)cccc2F)CC1 | inactive
COc1cccc(S(=O)(=O)N2CCN(S(=O)(=O)c3ccc4c(c3)OCCO4)CC2)c1 | inactive
COc1cc(F)c(S(=O)(=O)N2CCN(S(=O)(=O)c3ccc4c(c3)OCCO4)CC2)c(F)c1 | inactive
O=S(=O)(NC1CCN(S(=O)(=O)c2c(F)cccc2F)C1)c1ccc2c(c1)OCCO2 (centres undefined) | inactive
N#Cc1ccc(S(=O)(=O)N2CCN(S(=O)(=O)c3ccc4c(c3)OCCO4)CC2)cc1 | inactive
O=S(=O)(NCCCCCCNS(=O)(=O)c1c(F)cccc1F)c1ccc2c(c1)OCCO2 | inactive
O=S(=O)(c1c(F)cccc1F)C1CCN(S(=O)(=O)c2ccc3c(c2)OCCO3)CC1 | inactive
O=S(=O)(c1ccc2c(c1)OCCO2)N1CCN(S(=O)(=O)c2ccc(F)cc2F)CC1 | inactive
O=S(=O)(NCCCCCNS(=O)(=O)c1c(F)cccc1F)c1ccc2c(c1)OCCO2 | inactive
O=S(=O)(c1ccc2c(c1)OCCO2)C1CCN(S(=O)(=O)c2c(F)cccc2F)CC1 | inactive

SMILES | Activity
CC1(C)CCc2cc(S(=O)(=O)N3CCN(S(=O)(=O)c4c(F)cccc4F)CC3)ccc2O1 | inactive
C[C@@H]1CN(S(=O)(=O)c2c(F)cccc2F)CCN1S(=O)(=O)c1ccc2c(c1)OCCO2 | inactive
COc1cc(F)c(S(=O)(=O)N2CCCN(S(=O)(=O)c3cccc(N)c3)CC2)c(F)c1 | inactive
C[C@H]1CN(S(=O)(=O)c2ccc3c(c2)OCCO3)CCN1S(=O)(=O)c1c(F)cccc1F | inactive
O=S(=O)(c1ccc2c(c1)OCCO2)N1CCN(S(=O)(=O)c2c(F)cccc2F)CC1 | inactive
O=S(=O)(NC1CCN(S(=O)(=O)c2ccc3c(c2)OCCO3)C1)c1c(F)cccc1F (centres undefined) | inactive
COc1ccc(S(=O)(=O)N2CCN(S(=O)(=O)c3c(F)cccc3F)CC2)cc1 | inactive
O=S(=O)(c1ccc2c(c1)OCCO2)N1CCN(S(=O)(=O)c2ccccc2F)CC1 | inactive
Nc1cccc(S(=O)(=O)N2CCN(S(=O)(=O)c3c(F)cccc3F)CC2)c1 | inactive
O=S(=O)(NCC1CN(S(=O)(=O)c2c(F)cccc2F)C1)c1ccc2c(c1)OCCO2 | inactive
O=S(=O)(c1ccc2c(c1)OCCO2)N1CCCN(S(=O)(=O)c2c(F)cccc2F)CC1 | inactive
COc1ccc(S(=O)(=O)N2CCN(S(=O)(=O)c3ccc4c(c3)OCCO4)CC2)cc1 | inactive
O=S(=O)(NC1CCN(S(=O)(=O)c2c(F)cccc2F)CC1)c1ccc2c(c1)OCCO2 | inactive
O=S(=O)(c1ccc2c(c1)OCCCO2)N1CCN(S(=O)(=O)c2c(F)cccc2F)CC1 | inactive
O=S(=O)(c1ccc2ccccc2c1)N1CCN(S(=O)(=O)c2c(F)cccc2F)CC1 | inactive
Nc1cccc(S(=O)(=O)N2CCCN(S(=O)(=O)c3ccc4c(c3)OCCO4)CC2)c1 | inactive
O=S(=O)(NCCNS(=O)(=O)c1c(F)cccc1F)c1ccc2c(c1)OCCO2 | inactive
O=S(=O)(c1ccc(F)cc1)N1CCN(S(=O)(=O)c2ccc3c(c2)OCCO3)CC1 | inactive
C[C@@H]1CN(S(=O)(=O)c2ccc3c(c2)OCCO3)CCN1S(=O)(=O)c1c(F)cccc1F | inactive
O=S(=O)(NCCCCNS(=O)(=O)c1c(F)cccc1F)c1ccc2c(c1)OCCO2 | inactive
O=C(c1c(F)cccc1F)N1CCN(S(=O)(=O)c2ccc3c(c2)OCCO3)CC1 | inactive
O=C1CN(S(=O)(=O)c2ccc3c(c2)OCCO3)CCN1S(=O)(=O)c1c(F)cccc1F | inactive
COc1cc(F)c(S(=O)(=O)N2CCN(S(=O)(=O)c3cccc(N)c3)CC2)c(F)c1 | inactive
O=S(=O)(N[C@H]1CC[C@@H](NS(=O)(=O)c2c(F)cccc2F)CC1)c1ccc2c(c1)OCCO2 | inactive
O=S(=O)(c1cccc(F)c1)N1CCN(S(=O)(=O)c2ccc3c(c2)OCCO3)CC1 | inactive
O=S(=O)(c1ccc2c(c1)OCCO2)N1CCN(S(=O)(=O)c2cc(F)c(F)cc2F)CC1 | inactive
Nc1cccc(S(=O)(=O)N2CCN(S(=O)(=O)c3ccc4c(c3)OCCO4)CC2)c1 | inactive
